Experimental data from ChEMBL document CHEMBL5678818, “Discovery of potent SOS1 inhibitors that block RAS activation via disruption of the RAS-SOS1 interaction” (Proc Natl Acad Sci U S A, 2019).

Columns and labels:
[1] = molecular target: T1, Membrane-associated tyrosine- and threonine-specific cdc2-inhibitory kinase (Homo sapiens) (UniProt Q99640); assay: Inhibition of PKMYT1 (unknown origin) assessed as residual activity at 100 nM by KINOMEscan analysis relative to control
T1 sequence (whole entry): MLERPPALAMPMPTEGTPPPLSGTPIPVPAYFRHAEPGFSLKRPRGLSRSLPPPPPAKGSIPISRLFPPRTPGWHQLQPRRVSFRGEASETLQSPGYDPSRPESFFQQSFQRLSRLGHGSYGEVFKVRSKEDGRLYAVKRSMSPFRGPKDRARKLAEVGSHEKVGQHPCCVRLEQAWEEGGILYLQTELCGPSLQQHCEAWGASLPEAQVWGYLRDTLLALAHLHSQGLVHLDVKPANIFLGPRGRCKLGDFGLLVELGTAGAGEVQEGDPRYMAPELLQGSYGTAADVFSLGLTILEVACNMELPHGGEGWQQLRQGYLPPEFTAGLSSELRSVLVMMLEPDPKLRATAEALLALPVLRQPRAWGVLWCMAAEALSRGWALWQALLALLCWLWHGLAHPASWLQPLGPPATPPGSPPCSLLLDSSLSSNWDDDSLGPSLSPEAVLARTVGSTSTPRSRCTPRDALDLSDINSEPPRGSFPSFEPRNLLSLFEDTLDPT

[2] = molecular target: Angiopoietin-1 receptor (Homo sapiens) (UniProt Q02763); assay: Inhibition of TIE2 (unknown origin) assessed as residual activity at 100 nM by KINOMEscan analysis relative to control
[3] = molecular target: Ribosomal protein S6 kinase alpha-2 (Homo sapiens) (UniProt Q15349); assay: Inhibition of N-terminal RSK3 […] domain 1 (unknown origin) assessed as residual activity at 100 nM by KINOMEscan analysis relative to control
[4] = molecular target: Serine/threonine-protein kinase 25 (Homo sapiens) (UniProt O00506); assay: Inhibition of YSK1 (unknown origin) assessed as residual activity at 100 nM by KINOMEscan analysis relative to control
[5] = test system: Tyrosine-protein kinase ABL1 (Homo sapiens), P00519 [M351T]; assay: Inhibition of phosphorylated ABL1 M351T mutant (unknown origin) assessed as residual activity at 100 nM by KINOMEscan analysis relative to control
[6] = molecular target: T2, Mitogen-activated protein kinase 13 (Homo sapiens) (UniProt O15264); assay: Inhibition of p38-delta (unknown origin) assessed as residual activity at 100 nM by KINOMEscan analysis relative to control
T2 sequence (whole entry): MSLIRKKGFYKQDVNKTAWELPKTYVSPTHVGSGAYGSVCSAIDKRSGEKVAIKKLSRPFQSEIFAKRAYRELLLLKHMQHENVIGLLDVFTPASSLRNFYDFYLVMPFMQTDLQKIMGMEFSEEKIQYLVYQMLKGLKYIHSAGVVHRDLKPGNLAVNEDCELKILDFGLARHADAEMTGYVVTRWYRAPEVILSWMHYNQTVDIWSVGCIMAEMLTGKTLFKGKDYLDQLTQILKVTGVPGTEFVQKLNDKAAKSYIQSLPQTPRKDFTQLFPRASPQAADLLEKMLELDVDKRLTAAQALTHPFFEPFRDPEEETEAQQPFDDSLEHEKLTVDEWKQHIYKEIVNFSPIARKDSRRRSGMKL

[7] = molecular target: MAP/microtubule affinity-regulating kinase 3 (Homo sapiens) (UniProt P27448); assay: Inhibition of MARK3 (unknown origin) assessed as residual activity at 100 nM by KINOMEscan analysis relative to control
[8] = test system: Epidermal growth factor receptor (Homo sapiens), P00533 [G719S]; assay: Inhibition of EGFR G719S mutant (unknown origin) assessed as residual activity at 100 nM by KINOMEscan analysis relative to control
[9] = molecular target: NT-3 growth factor receptor (Homo sapiens) (UniProt Q16288); assay: Inhibition of TRKC (unknown origin) assessed as residual activity at 100 nM by KINOMEscan analysis relative to control
[10] = test system: Proto-oncogene tyrosine-protein kinase receptor Ret (Homo sapiens), P07949 [V804M]; assay: Inhibition of RET V804M mutant (unknown origin) assessed as residual activity at 100 nM by KINOMEscan analysis relative to control
[11] = species: Homo sapiens; assay: Inhibition of N-terminal GST-tagged recombinant human SOS1 H905A mutant (564 to 1049 residues) expressed in Escherichia coli assessed as reduction in KRAS G12C mutant activation at 10 uM by HTRF analysis relative to control
[12] = test system: Mast/stem cell growth factor receptor Kit (Homo sapiens), P10721 [V559D,V654A]; assay: Inhibition of KIT V559D/V654A mutant (unknown origin) assessed as residual activity at 100 nM by KINOMEscan analysis relative to control
[13] = molecular target: Cyclin-dependent kinase 16 (Homo sapiens) (UniProt Q00536); assay: Inhibition of PCTK1 (unknown origin) assessed as residual activity at 100 nM by KINOMEscan analysis relative to control
[14] = molecular target: T3, Receptor-interacting serine/threonine-protein kinase 4 (Homo sapiens) (UniProt P57078); assay: Inhibition of RIPK4 (unknown origin) assessed as residual activity at 100 nM by KINOMEscan analysis relative to control
T3 sequence (whole entry): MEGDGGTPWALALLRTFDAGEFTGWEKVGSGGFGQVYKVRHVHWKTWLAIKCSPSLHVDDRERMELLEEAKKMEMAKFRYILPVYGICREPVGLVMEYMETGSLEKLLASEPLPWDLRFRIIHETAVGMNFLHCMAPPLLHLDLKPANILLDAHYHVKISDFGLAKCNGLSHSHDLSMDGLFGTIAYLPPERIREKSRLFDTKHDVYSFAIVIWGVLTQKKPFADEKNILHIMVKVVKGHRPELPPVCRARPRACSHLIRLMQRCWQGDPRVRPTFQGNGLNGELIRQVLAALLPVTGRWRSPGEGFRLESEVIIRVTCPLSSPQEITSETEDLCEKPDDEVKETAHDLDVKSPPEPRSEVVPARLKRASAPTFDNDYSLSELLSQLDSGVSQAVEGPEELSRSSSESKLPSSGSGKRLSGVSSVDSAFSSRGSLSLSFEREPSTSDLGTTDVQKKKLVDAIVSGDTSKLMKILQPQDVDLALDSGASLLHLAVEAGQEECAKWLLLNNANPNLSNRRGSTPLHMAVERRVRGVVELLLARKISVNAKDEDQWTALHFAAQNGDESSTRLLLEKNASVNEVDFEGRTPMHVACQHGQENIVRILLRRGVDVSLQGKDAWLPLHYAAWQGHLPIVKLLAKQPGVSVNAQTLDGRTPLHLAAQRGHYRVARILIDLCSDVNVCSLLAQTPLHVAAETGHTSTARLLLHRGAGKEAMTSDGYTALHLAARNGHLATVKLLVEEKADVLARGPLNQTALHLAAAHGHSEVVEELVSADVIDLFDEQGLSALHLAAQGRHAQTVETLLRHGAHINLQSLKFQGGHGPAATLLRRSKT

Serine/threonine-protein kinase 25 (Homo sapiens), sequence (O00506 whole entry, looked up): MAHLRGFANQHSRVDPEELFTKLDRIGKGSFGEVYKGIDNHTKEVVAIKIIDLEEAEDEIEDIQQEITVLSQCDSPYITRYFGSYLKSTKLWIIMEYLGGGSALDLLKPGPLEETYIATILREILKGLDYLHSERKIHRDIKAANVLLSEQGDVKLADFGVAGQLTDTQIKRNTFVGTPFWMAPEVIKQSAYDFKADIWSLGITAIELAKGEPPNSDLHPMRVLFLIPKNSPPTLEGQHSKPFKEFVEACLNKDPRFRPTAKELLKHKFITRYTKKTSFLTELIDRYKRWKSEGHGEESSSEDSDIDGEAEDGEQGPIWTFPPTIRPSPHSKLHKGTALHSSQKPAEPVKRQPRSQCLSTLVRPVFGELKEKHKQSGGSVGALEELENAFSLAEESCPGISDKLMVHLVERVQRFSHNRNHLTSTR
Cyclin-dependent kinase 16 (Homo sapiens), sequence (Q00536 whole entry): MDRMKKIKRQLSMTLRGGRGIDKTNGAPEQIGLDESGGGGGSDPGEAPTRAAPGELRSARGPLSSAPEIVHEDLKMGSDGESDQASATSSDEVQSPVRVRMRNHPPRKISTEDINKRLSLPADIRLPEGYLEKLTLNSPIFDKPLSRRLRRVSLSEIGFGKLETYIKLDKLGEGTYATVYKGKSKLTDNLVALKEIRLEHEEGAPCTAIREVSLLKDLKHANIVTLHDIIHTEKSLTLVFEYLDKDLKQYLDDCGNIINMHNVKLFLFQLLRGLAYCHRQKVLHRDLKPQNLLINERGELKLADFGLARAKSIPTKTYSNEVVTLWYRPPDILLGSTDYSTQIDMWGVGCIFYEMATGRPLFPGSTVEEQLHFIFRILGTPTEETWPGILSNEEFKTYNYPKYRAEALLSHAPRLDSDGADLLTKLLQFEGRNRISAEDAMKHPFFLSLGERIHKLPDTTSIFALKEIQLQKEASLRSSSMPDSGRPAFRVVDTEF
Ribosomal protein S6 kinase alpha-2 (Homo sapiens), sequence (Q15349 whole entry): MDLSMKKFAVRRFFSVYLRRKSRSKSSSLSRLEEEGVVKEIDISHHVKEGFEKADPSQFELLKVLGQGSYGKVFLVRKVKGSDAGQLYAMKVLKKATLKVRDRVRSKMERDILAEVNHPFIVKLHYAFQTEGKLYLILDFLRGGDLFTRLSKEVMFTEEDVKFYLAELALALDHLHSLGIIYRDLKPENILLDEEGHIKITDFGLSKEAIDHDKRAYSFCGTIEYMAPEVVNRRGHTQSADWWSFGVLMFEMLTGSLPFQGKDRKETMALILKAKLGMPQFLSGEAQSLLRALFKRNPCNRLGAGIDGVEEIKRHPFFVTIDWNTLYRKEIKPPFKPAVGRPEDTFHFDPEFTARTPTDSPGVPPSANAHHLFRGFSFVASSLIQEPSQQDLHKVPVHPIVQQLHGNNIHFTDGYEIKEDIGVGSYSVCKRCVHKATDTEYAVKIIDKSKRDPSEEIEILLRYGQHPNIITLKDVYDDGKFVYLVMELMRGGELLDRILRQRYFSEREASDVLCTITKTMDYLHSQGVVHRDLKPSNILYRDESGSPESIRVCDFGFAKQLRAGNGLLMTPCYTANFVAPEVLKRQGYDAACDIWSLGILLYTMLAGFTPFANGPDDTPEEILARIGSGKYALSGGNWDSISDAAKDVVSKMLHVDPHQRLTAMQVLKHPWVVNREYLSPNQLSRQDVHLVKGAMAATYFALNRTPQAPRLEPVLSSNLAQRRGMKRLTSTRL
MAP/microtubule affinity-regulating kinase 3 (Homo sapiens), sequence (P27448 whole entry, looked up): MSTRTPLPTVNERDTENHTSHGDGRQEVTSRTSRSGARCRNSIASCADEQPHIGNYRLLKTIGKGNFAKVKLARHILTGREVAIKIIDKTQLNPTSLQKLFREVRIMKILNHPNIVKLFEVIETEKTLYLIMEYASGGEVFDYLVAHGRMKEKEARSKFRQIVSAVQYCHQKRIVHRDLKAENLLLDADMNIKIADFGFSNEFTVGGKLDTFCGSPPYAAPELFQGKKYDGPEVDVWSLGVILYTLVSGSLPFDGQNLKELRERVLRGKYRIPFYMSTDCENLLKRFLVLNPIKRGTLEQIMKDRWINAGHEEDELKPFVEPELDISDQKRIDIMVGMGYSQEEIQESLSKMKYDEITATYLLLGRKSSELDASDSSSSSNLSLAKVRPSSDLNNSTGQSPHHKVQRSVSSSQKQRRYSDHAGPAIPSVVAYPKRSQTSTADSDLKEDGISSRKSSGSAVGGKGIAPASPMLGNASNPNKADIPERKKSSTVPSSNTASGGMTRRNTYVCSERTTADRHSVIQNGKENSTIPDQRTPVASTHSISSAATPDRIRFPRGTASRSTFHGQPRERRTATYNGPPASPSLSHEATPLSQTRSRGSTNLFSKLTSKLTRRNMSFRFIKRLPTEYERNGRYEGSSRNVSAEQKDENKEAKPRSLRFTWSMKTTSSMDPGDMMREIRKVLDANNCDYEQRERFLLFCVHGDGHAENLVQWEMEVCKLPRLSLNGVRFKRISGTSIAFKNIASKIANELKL
NT-3 growth factor receptor (Homo sapiens), sequence (Q16288 32-839 limits assumed): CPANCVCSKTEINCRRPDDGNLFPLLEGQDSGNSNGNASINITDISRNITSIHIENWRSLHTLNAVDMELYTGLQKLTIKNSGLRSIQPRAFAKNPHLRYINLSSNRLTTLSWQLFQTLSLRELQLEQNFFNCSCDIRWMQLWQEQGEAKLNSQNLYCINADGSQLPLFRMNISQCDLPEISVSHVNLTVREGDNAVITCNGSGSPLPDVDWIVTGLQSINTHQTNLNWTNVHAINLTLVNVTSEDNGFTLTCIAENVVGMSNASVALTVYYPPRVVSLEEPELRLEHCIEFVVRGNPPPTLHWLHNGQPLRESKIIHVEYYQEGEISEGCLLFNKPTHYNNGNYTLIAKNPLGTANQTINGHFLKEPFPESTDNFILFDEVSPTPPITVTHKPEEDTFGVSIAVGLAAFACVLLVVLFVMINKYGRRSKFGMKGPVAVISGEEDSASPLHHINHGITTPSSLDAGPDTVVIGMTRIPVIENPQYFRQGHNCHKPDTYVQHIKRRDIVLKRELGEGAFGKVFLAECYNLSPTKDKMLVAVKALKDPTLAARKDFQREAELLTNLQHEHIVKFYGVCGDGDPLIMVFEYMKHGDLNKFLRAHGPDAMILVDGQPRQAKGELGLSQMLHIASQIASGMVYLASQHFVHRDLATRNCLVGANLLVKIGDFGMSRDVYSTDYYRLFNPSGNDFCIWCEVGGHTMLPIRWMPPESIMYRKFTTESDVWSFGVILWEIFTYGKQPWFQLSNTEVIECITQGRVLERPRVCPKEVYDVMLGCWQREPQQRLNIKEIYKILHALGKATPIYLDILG
Angiopoietin-1 receptor (Homo sapiens), sequence (Q02763 whole entry): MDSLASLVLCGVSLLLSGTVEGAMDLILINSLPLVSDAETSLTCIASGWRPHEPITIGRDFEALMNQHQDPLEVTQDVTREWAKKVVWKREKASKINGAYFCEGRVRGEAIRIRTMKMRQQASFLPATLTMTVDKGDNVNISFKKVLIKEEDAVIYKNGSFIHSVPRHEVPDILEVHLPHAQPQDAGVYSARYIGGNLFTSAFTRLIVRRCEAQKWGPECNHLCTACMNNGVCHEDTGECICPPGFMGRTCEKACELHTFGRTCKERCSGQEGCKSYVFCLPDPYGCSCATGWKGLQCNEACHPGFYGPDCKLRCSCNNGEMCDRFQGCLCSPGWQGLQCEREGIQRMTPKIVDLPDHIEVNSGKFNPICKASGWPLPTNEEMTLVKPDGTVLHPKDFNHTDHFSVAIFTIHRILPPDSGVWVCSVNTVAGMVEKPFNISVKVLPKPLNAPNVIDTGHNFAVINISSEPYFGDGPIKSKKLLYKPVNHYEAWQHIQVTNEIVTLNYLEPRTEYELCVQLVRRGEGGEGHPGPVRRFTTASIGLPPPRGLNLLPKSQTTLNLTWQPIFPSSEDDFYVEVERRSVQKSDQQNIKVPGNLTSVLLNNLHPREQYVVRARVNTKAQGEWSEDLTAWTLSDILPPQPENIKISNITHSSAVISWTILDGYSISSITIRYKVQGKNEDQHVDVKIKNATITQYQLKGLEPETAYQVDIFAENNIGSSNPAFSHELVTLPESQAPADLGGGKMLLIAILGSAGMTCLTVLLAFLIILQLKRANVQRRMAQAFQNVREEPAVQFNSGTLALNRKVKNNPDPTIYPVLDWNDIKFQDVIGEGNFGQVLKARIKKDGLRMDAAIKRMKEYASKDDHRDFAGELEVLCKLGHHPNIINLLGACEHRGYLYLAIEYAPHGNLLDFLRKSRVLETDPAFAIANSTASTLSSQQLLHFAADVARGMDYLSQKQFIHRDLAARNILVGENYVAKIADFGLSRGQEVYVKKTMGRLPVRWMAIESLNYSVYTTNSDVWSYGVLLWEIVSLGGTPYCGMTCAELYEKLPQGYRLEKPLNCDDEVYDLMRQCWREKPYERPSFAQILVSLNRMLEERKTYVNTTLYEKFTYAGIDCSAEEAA

COc1cc2ncnc(N[C@H](C)c3cccc4ccccc34)c2cc1OC was tested, and the Activity [1] was 100%, the Activity [2] was 68% and the Activity [3] was 100%. For the same molecule, the Activity [4] was 100%, the Activity [5] was 100% and the Activity [6] was 100%. It also gave an Activity [7] of 88%, an Activity [8] of 96% and an Activity [9] of 89%. It also gave an Activity [10] of 100%, an inhibition [11] of 52% and an Activity [12] of 100%. It also gave an Activity [13] of 96% and an Activity [14] of 77%.
